Data published in patent publication US20200316021A1, “Dosing Regimen of Siponimod” (NOVARTIS AG, priority 2017, published 2020).

How the values were obtained:
[1] = i.v. siponimod study in healthy subjects: cardiac safety; format: in vivo, human; details: i.v. 0.25 mg over 3 hours and 1 mg over 24 hours (4x0.25 mg/6 hours)
Procedure: (§1) A comparison of bradyarrhythmic effects (H R, AVB, SP) of a 1 mg oral dose from previous studies and a 1 mg/day i.v. dose infused over 24 h in healthy subjects supported the hypothesis that such effects are related to the slope of the concentration-time curve.
(§2) In said study with siponimod administered intravenously, PK and PD were determined. […] This finding was consistent with previous oral administrations of 0.25 mg (starting dose of the oral initial period dosing regimen).

CYP2C9, CYP3A4 = details: humans; cited from earlier work
[2] = siponimod single dose study (SAD study) in healthy volunteers; format: in vivo; details: healthy subjects
[3] = phase II dose finding study in relapsing-remitting multiple sclerosis (CBAF312A2201), MRI brain lesion parameters; format: in vivo, human; details: RRMS patients
Procedure: In a phase II dose finding study of siponimod in patients with relapsing-remitting multiple sclerosis (CBAF312A2201) safety, tolerability and efficacy on magnetic resonance imaging (MRI) brain lesion parameters were evaluated. The dose response curve for the MRI-based efficacy of siponimod given orally once daily compared with placebo was determined.
The dose-response curve as defined by the primary endpoint, favored the upper part of this range, i.e. a dose in the range of siponimod 2 mg, since efficacy seemed to decrease with lower doses. Siponimod achieved positive results in a clinical trial for the treatment of RRMS patients (Selmaj et al., Lancet Neurol, 2013, 12, 756-767) and is currently being investigated in an ongoing phase III study (EXPAND) in patients with SPMS. The dose of 2 mg of siponimod was the chosen dose for this follow up phase III study.

[4] = multiple-dose titration clinical study in healthy subjects: daily chronotropic effects (heart rate); format: in vivo, human
Procedure: S1P receptor modulators, as mentioned above, are known to cause dose dependent transient decrease in heart rate within 2-3 hours of drug intake (Legangneux et al 2012, Hoch et al 2014). In order to evaluate on how to best mitigate the bradyarrhythmic risk of siponimod, a multiple-dose titration clinical study in healthy subjects was run.
The primary objective of this study was to measure the daily chronotropic effects of two siponimod dose-titration regimens (from 0.25 mg to 10 mg; Dose Titration (DT) 1# and 2#, respectively) compared to daily chronotropic effects of oral siponimod 10 mg (fixed dose, once daily) and placebo over 12 days. The heart rate (HR) changes have been compared between subjects exposed to 10 mg siponimod once daily (QD) with or without 2 different up-titration schemes. The titration scheme of this study was: • DT 1#: Day 1: 0.25 mg; Day 2: 0.25 mg; Day 3: 0.25 mg; Day 4: 0.5 mg; Day 5: 1.0 mg; Day 6: 2.0 mg; Day 7: 4.0 mg; Day 8: 8.0 mg and from Day 9 to Day 12: 10.0 mg daily. • DT 2#: Day 1: 0.25 mg; Day 2: 0.25 mg; Day 3: 0.5 mg; Day 4: 0.75 mg; Day 5: 1.25 mg; Day 6: 2.0 mg; Day 7: 3.0 mg; Day 8: 5.0 mg; from Day 9 to Day 12: 10.0 mg daily.
This effect was maintained until end of treatment on Day 12. […] It was then concluded that both titration regimens effectively attenuated the initial bradycardia observed on Day 1 of treatment with siponimod 10 mg daily fixed-dose.

[5] = half-life and brain penetration of siponimod; details: in vivo
Procedure: (§3) Siponimod is a second generation S1 P receptor modulator that reduces peripheral lymphocyte counts approximately 4-6 hours (h) after the first dose. […] Siponimod's mode of action is believed to include S1P1-mediated prevention of effector lymphocyte recirculation from lymphatic tissue to sites of inflammation, such as the central nervous system (CNS). In addition, there may be direct beneficial effects in the CNS mediated by S1P1 and/or S1P5. […] Thus, siponimod may display additional beneficial activities in the CNS.

[6] = multiple ascending dosing study (MAD study) in healthy subjects: adverse events; format: in vivo, human; details: 20 mg multiple dose over 28 days
Procedure: (§4) In another study in healthy subjects siponimod was administered in multiple doses, i.e. 0.3, 1, 2.5, 10 and 20 mg, over 28 days (multiple ascending dosing study, MAD study).

[7] = in vivo, iv
Description: (§5) The safety of the i.v. route in humans was supported by a local tolerance study in rabbit and cardiovascular safety studies in guinea pig, rat and rabbit using i.v. (bolus) route.

[8] = randomized, placebo-controlled clinical study of siponimod in ischemic stroke, modified Rankin Scale; format: in vivo, human; details: two week treatment daily, 7 days i.v. with titration followed by 7 days p.o., 10 mg maintenance
Description: The clinical study investigates the initial efficacy and safety of siponimod administered on top of standard-of-care compared to placebo in patients with ischemic stroke). This is a randomized, doubled-blinded, placebo-controlled, parallel group study of siponimod on top of standard-of-care for ischemic stroke, consisting of 3 epochs: Screening/Baseline, Treatment, and Follow-Up (see FIG. 1).
These patients continue to be followed for the remainder of the assessment schedule (Table 3). i.v. Dose Titration
The siponimod i.v. dosing regimen is as follows: • Day 1: 0.25 mg over 6 hours (×2), then 0.5 mg over 6 hours, then 0.75 mg over 6 hours for a total Day 1 dose of 1.75 mg • Day 2: 1.25 mg over 6 hours, then 2 mg over 6 hours, then 2.5 mg over 6 hours (×2) for a total Day 2 dose of 8.25 mg • Days 3 through Day 7: 2.5 mg over 6 hours (×4) for a total daily dose of 10 mg. • If patient can swallow then the administration from Day 8 to Day 14 is oral.
The modified Rankin Scale (mRS), is a widely-used, clinician-assessed instrument, and is considered the current standard assessment for stroke outcomes by most Health Authorities. It consists of 6 grades of disability, higher scores indicating more severe disability (0=asymptomatic, 6=dead).
The mRS score at 90 days after ischemic stroke is the primary endpoint for measuring siponimod efficacy in this study. […]

[9] = clinical study of siponimod pharmacokinetics in CYP2C9 poor metabolizers; format: in vivo, human; details: for AUC compared with reference AUC of extensive metabolizers (CYP2C9*1*1): poor metabolizers
Description: In addition to the previously described benefits, the dosing regimen of the present disclosure has also the advantage to highly reduce the additional risks run by the CYP2C9 poor metabolizer.

[10] = i.v. versus oral siponimod study in healthy subjects (absolute bioavailability): pharmacokinetics; format: in vivo, human
Procedure: as §1
In said study with siponimod administered intravenously, PK and PD were determined. […] This finding was consistent with previous oral administrations of 0.25 mg (starting dose of the oral initial period dosing regimen). The results of this clinical study were the following:
as §5

[11] = tested on: Absolute Lymphocyte Count (ALC); assay: multiple ascending dosing study (MAD study) in healthy subjects: decline of Absolute Lymphocyte Count; format: in vivo, human; details: 0.3 mg to 10 mg dose
Procedure: as §4
Amongst the various potential factors which may contribute to the reduction of inflammation, and which may therefore contribute to the efficacy of a treatment by siponimod, one important factor is the reduction of the Absolute Lymphocyte Count (ALC), being ALC known to play an important role in the inflammatory processes, including those in the brain. The exact mechanism by which an S1P receptor modulation may mitigate stroke pathophysiology is/still not fully elucidated and thus, besides the Absolute Lymphocyte Count related effect (ALC-related effect), other potential mechanisms may play a role.

[12] = tested on: peripheral lymphocyte counts; assay: reduction and recovery of peripheral lymphocyte counts; format: in vivo
Procedure: as §3

[13] = tested on: Absolute Lymphocyte Count (ALC); assay: i.v. versus oral siponimod study in healthy subjects: PD (ALC) effects; format: in vivo, human; details: i.v. 0.25 mg over 3 hour and 1 mg over 24 hours vs oral doses at same dose levels
Procedure: as §2

CCc1cc(/C(C)=N/OCc2ccc(C3CCCCC3)c(C(F)(F)F)c2)ccc1CN1CC(C(=O)O)C1 [siponimod, 1-{4-[(1E)-N-{[4-cyclohexyl-3-(trifluoromethyl)benzyl]oxy}ethanimidoyl]-2-ethylbenzyl}-3-azetidine carboxylic acid]
cardiac safety profile of i.v. infusions [1]: excellent cardiac safety profile | enzymes eliminating siponimod by metabolism (CYP2C9, CYP3A4): mainly by CYP2C9, followed by CYP3A4 | safety and tolerability of the 25 mg single dose ([2]; 25 mg single dose): favorable safety and tolerability profile | single maximum tolerated dose (single MTD) ([2]; single dose): 25 mg | MRI-based efficacy and safety of the dose range ([3]; 1.25 mg to 2 mg dose range orally once daily): close to maximal efficacy, with a good safety profile | MRI-based efficacy compared to 2 mg ([3]; 10 mg orally once daily): little additional efficacy compared to 2 mg | safety profile ([3]; 10 mg orally once daily): worse safety profile | reduction in heart rate vs. placebo ([4]; Day 1, either titration regimen): no statistically significant reduction in heart rate vs. placebo | reduction in HR ([4]; Days 3 to 7, DT 1# and DT 2#): minor reductions in HR | heart rates versus placebo ([4]; by Day 9 until Day 12, both titration regimens): comparable to placebo | bradycardia or AV conduction effects ([4]; dose titration regimens DT 1# and DT 2#, 0.25 mg to 10 mg, 12 days, healthy subjects): Neither DT 1# nor DT 2# resulted in clinically significant bradycardia or AV conduction effects | heart rates versus placebo ([4]; non-titration regimen, 10 mg fixed dose once daily): considerable separation from placebo throughout the study | bradyarrhythmia at the starting dose ([4]; starting dose 0.25 mg of the DT regimens): not associated with bradyarrhythmia | crossing of the blood brain barrier [5]: readily crosses the blood brain barrier | adverse events at the maximum investigated multiple dose [6]: symptomatic bradycardia as the only relevant adverse event | cardiovascular effects in i.v. cardiovascular safety studies [7]: Cmax-related transient cardiovascular effects | global functioning measured by modified Rankin Scale (mRS) score on Day 90 after ischemic stroke, compared to placebo [8]: improved global functioning | Cmax in poor versus extensive metabolizers ([9]; CYP2C9 poor metabolizers): only slightly greater | Tmax in poor versus extensive metabolizers ([9]; CYP2C9 poor metabolizers): comparable in poor and extensive metabolizers | AUC compared with reference AUC of extensive metabolizers (CYP2C9*1*1) ([9]; first value printed (first-named genotype CYP2C9*2*3)): approximately 2 fold | AUC compared with reference AUC of extensive metabolizers (CYP2C9*1*1) ([9]; second value printed (second-named genotype)): ~4 fold | dose and time dependence of pharmacokinetics ([10]; human, in vivo): dose linear and time-independent pharmacokinetics | bioavailability ([10]; human, in vivo, 0.25 mg, oral versus i.v., healthy subjects, read-out: oral bioavailability F %): 84% | half-life ([10]; human, in vivo, other: oral and intravenous (range over both routes), oral and i.v. route, read-out: terminal T1/2): 27 to 33 h | median i.v. Tmax ([10]; i.v. infusion over 3 hours and 24 hours): at the end of the 3 hour and 24 hour infusions | geometric mean oral Cmax lower than mean i.v. Cmax ([10]; oral versus i.v.): ~48% | acute ALC response on Day 1 of treatment [11]: dose-dependent decline of ALC | time to reduction of peripheral lymphocyte counts after the first dose ([12]; after the first dose): 4 to 6 h | recovery of the baseline lymphocyte counts ([12]; after treatment withdrawal): within a week after treatment withdrawal | magnitude of PD (ALC) effects % Emax, i.v. versus oral [13]: comparable to the effects after oral doses at the same dose levels
